Columns and labels:
[1] = survival, clinical manifestation, weight and water intake of rats during feeding of test substances; format: in vivo, F344/DuCrj male rats
Description: (§1) F344/DuCrj male rats (Charles River Japan Inc.) were used as test animals. The rats were subjected to a subcutaneous administration of DMH of 20 mg/kg once a week, for 4 weeks. They were divided into a group 1 fed with a basic feed (labo MR stock, manufactured by Nihon Nosan Kogyo KK), a group 2 fed with PhIP (200 ppm) only, and a group 3 fed with a mixture of PhIP (200 ppm) and PCC (5%). The rats (20 per group) were allowed to take the feed freely for 32 weeks.
With an electronic balance (LC2200, manufactured by Sartorius), the weight of each rat was measured once a week until 14th week after initiation of the experiment, and thereafter measured once every two weeks. The feed intake amount of each rat was also measured once a week until 14th week, and thereafter measured once every other week in the same manner as the weight measurement, except that the feed intake amount for two days was measured.
With an electronic balance (LC2200, manufactured by Sartorius), an intake amount of water for two days was measured once a week until 14th week, and thereafter measured once every other week.

[2] = test system: large intestine cancer; test: carcinostatic effect against PhIP-promoted, DMH-initiated large intestine cancer in rats (macroscopic pathologic examination); format: in vivo, F344/DuCrj male rats; settings: DMH 20 mg/kg s.c. once a week for 4 weeks, then feed for 32 weeks, group 2 PhIP 200 ppm only, group 3 PhIP 200 ppm + PCC 5%
Source text: Using DMH (1,2-dimethylhydradinedihydrochloride, manufactured by Tokyo Kasei Kogyo Co., Ltd., Lot. FIH01-UR) as an initiator of large intestine cancer, the carcinostatic effect of a purple corn pigment (manufactured. by San-Ei gen F.F.I., Inc. Lot. 990519, containing 10.8% of the compound of the formula (III) and 6.5% of the compound of the formula (IV), hereinafter referred to as PCC) was examined against the carcinogenesis promoting effect of PhIP (2-amino-1-methyl-6-phenylimidazo [4,5-b] pyridine (Toronto Research Chemical Inc., Lot. 5-YCX-55-2).
as §1
The rats alive at the end of the experiment were fasted and then bled for euthanasia under deep anesthesia. They were dissected together with the dead rat of the group 2 to macroscopically examine tumorigenesis in various organs in the thoracic cavity and the abdominal cavity.
In every rat, tumorigenesis was not observed in other organs than the large intestine (cecum, colon, rectum). The tumor generated in the large intestine was recognized as cancer by the macroscopic pathologic examination.

Cn1c(N)nc2ncc(-c3ccccc3)cc21 [PhIP, 2-amino-1-methyl-6-phenylimidazo[4,5-b]pyridine]
water intake amount ([1]; 5th and 6th weeks, group 2 PhIP 200 ppm, group 3 PhIP 200 ppm + PCC 5%, group 1 about 20): about 19 g/animal/day | survival until the end of the experiment ([1]; 32 weeks feeding after DMH, 20 rats per group): one in the group 2 died during the experiment | weight of the rats reached during administration of test substances (from about 230 g) ([1]; group 2 PhIP 200 ppm, group 3 PhIP 200 ppm + PCC 5%, group 1 basic feed about 360 g): ~315 g | Number of rats having tumor ([2]; 20 rats per group): 17 | Numbers of tumors ([2]; 20 rats per group): 48 | Number of tumors/number of rats having tumor [2]: 2.82

Reference: patent US20040053859A1, “Preventive or therapeutic agent for cancer containing cyanidin compound as active ingredient” (priority 2000, published 2004)
